# Assay results published in patent US10682366B2, “Method for enhancing immunity using ginsenoside F1 as an active ingredient” (INTELLIGENT SYNTHETIC BIOLOGY CENTER, priority 2016, dated 2020).
# Assays:
# [1] = test system: natural killer cell-sensitive RMA-S (MHC class I-) cells; test: In vivo natural killer cell-based selective reduction of RMA-S (RMA-S/RMA target cell system); conditions: mice pretreated at 25 mg/kg; for removability (selective reduction rate of RMA-S): RMA-S/RMA mixture intraperitoneal, 8 hours later, FACS
# Experimental: To evaluate effectiveness of in vivo cell-killing activity of ginsenoside F1, natural killer cell-sensitive RMA-S (MHC class I^−) and natural killer cell-resistant RMA (MHC class I^+) target cell systems were used.
# In detail, mice were pretreated with ginsenoside F1 at a dose of 25 mg/kg. A mixture of RMA-S/RMA cells, each cell labeled with different fluorescence intensity, was administered into the mice via intraperitoneal injection. 8 hours later, a selective reduction rate of RMA-S by natural killer cells was analyzed by FACS.
# [2] = test system: primary natural killer cells; test: Cell-killing activity of primary natural killer cells (cytolysis of target cells); assay type: cell-based, human; conditions: for cytolysis of target cells: compared to DMSO-treated group
# From the text: (§1) In detail, peripheral blood mononuclear cells (PBMCs) separated from the blood and purified natural killer cells were pretreated with ginsenoside F1 or Rg3, and then co-cultured with K562 cell or 721.221 cell which is an europium-labeled target cells. The natural killer cell and the target cell were mixed at a ratio of 5:1, 10:1, 20:1, and 40:1, followed by culture. Meanwhile, intensity of fluorescence emitted from the target cell is proportional to cell-killing activity of natural killer cell. Therefore, a culture medium was separated by centrifugation, and then fluorescence emitted by cell lysis of the target cell was measured by using a microplate reader.
# Blood (50 ml) of a healthy donor was collected in a vacutainer cell preparation tube (BD Biosciences) containing sodium heparin. Thereafter, the blood was percoll-gradient centrifuged to recover a buffy coat which is a white thin layer consisted of platelets and white blood cells. Peripheral blood mononuclear cells obtained by washing this buffy coat with PBS were separated by using a human NK cell negative selection kit (Miltenyl Biotech). Part of the separated natural killer cells and a FACS buffer were mixed, and then purity of natural killer cells (CD3^−/CD16^+) and the number and ratio of CD56^dim/CD16^+, CD56^bright/CD16^−, and CD56^bright/CD16^+ were measured by using a FACS machine and fluorochrome-conjugated anti-CD3, anti-CD56, and […] antibodies. Natural killer cells with purity of 95% or more were used in experiments.
# The primary natural killer cells separated by the method of Example 3-1 were used to examine whether ginsenoside F1 increases cell-killing activity of primary natural killer cells, in the same manner as in Example 2.
# [3] = test system: natural killer cells co-cultured with K562 cell or 721.221 cell; test: Cell-killing activity of natural killer cells (cytolysis of europium-labeled target cells); assay type: cell-based, human; conditions: pretreated NK cells; NK:target ratio 5:1, 10:1, 20:1, 40:1; K562 or 721.221; compared to DMSO-treated group
# Experimental: In order to examine whether ginsenoside F1 increases cell-killing activity of natural killer cells, cytolysis of target cells was measured.
# as §1
# [4] = test system: primary natural killer cells; test: Calcium flux assay by confocal live cell imaging; assay type: cell-based, human; conditions: activated with NKG2D antibody and 2B4 antibody; compared to ginsenoside Rg1
# Experimental: To investigate a natural killer cell-based immune enhancement mechanism of ginsenoside F1 calcium flux assay of individual cells was performed by live cell imaging using confocal microscopy.
# In detail, primary natural killer cells were purified (>97%) by the method of Example 3-1, and then treated with ginsenoside F1 or Rg1. For 30 seconds, a basal calcium level was measured, and then natural killer cells were activated using a combination of NKG2D antibody and 2B4 antibody, followed by calcium flux assay by confocal live cell imaging.
# [5] = test system: primary natural killer cells; test: Analysis of cell-killing factors (perforin, granzyme B) by quantitative RT-PCR; assay type: cell-based, human; conditions: 12 hours after treatment
# Experimental: To investigate a cell-killing activation mechanism of natural killer cells by ginsenoside F1, primary natural killer cells purified by the method of Example 3-1 were treated with ginsenoside F1 or Rg1. 12 hours later, total RNA was isolated, and then expressions of perforin and granzyme B which are representative cell-killing factors of natural killer cells were analyzed by quantitative RT-PCR.
# In detail, total RNA was isolated from natural killer cells using a TRIzol reagent, and cDNA was synthesized using primers of unknown sequences, which were manufactured by Toyobo, and reverse transcriptase. Thereafter, quantitative RT-PCR was performed using primers of the following Table 1 and SYBR PCR Master Mix (Toyobo).
# PCR conditions are the same as in the following Table 2.
# [6] = test system: peripheral blood mononuclear cells (PBMCs) and natural killer cells; test: Degranulation activity of innate immune cells (CD107a expression by FACS); assay type: cell-based, human; conditions: cells pretreated with ginsenoside, co-cultured with K562 or 721.221 target cell; compared to DMSO (vehicle)-treated group
# Experimental: Effect of ginsenoside F1 on degranulation activity of innate immune cells was measured by fluorescence activated cell sorter (FACS).
# In detail, peripheral blood mononuclear cells (PBMCs) separated from the blood and purified natural killer cells were pretreated with ginsenoside, and then co-cultured with K562 cell or 721.221 cell which is a target cell of the above cells, respectively. Thereafter, the surfaces of the peripheral blood mononuclear cells and the natural killer cells were stained with fluorochrome-conjugated anti-CD3, anti-CD56, and anti-CD107a antibodies. Meanwhile, degranulation activity of peripheral blood mononuclear cells or natural killer cells is proportional to CD107a expression on cell surface, as shown in FIG. 1. Therefore, CD107a expression levels of the peripheral blood mononuclear cells and the natural killer cells were measured by a FACS machine.
SMILES,removability (selective reduction rate of RMA-S) [1],cytolysis of target cells [2],cytolysis of target cells [3],calcium flux of natural killer cells [4],RMA-S reduction effect relative to non-treated group ([1]; 8 hours) [times],expression level of granzyme B compared to ginsenoside Rg1-treated group [5],expression level of perforin compared to ginsenoside Rg1-treated group [5],expression level of granzyme B ([5]; compared to non-treated group),expression level of perforin ([5]; compared to non-treated group),cytolysis of target cells compared to the ginsenoside Rg3 and Rg1-treated group [2],CD107a expression [6]
"CC(C)=CCC[C@](C)(O[C@@H]1O[C@H](CO)[C@@H](O)[C@H](O)[C@H]1O)[C@H]1CC[C@]2(C)[C@@H]1[C@H](O)C[C@@H]1[C@@]3(C)CC[C@H](O)C(C)(C)[C@@H]3[C@@H](O[C@@H]3O[C@H](CO)[C@@H](O)[C@H](O)[C@H]3O)C[C@]12C [ginsenoside Rg1, reference compound]",about 52%,high cytolysis of target cells,–,–,–,–,–,–,–,–,–
CC(C)=CCC[C@](C)(O[C@@H]1O[C@H](CO)[C@@H](O)[C@H](O)[C@H]1O)[C@H]1CC[C@]2(C)[C@@H]1[C@H](O)C[C@@H]1[C@@]3(C)CC[C@H](O)C(C)(C)[C@@H]3[C@@H](O)C[C@]12C [ginsenoside F1],≥ 70%,high cytolysis of target cells,high cytolysis of target cells,more effectively promotes calcium flux,2,high expression level of granzyme B,high expression level of perforin,about 1.5 times,about 2 times,remarkably excellent cytolysis,highest CD107a expression
"CC(C)=CCC[C@](C)(O)[C@H]1CC[C@]2(C)[C@@H]1[C@H](O)C[C@@H]1[C@@]3(C)CC[C@H](O[C@@H]4O[C@H](CO)[C@@H](O)[C@H](O)[C@H]4O[C@@H]4O[C@H](CO)[C@@H](O)[C@H](O)[C@H]4O)C(C)(C)[C@@H]3CC[C@]12C [ginsenoside Rg3, reference compound]",–,high cytolysis of target cells,high cytolysis of target cells,–,–,–,–,–,–,–,increased
